Each molecule was assayed on Actinomyces naeslundii (assay: Phenotype microarray metabolic activity). Conditions: A naeslundii; 24 hrs.
Assay type: cell-based
Protocol: (§1) The extent of metabolic activity of the tested bacteria in the presence of the above-mentioned saccharides after 24 hours and 48 hours was investigated through a high throughput phenotype microarray system (PM) for microbial cells (Biolog Inc.). Each PM can contain up to 95 different biochemical compounds (e.g. saccharides) that may act as substrates for bacteria as well as one negative control, not containing the substrates. Microarray plates were used in which the different wells of each plate were pre-loaded (by the manufacturer, Biolog Inc.) with different saccharides to be tested. Each bacterial species was tested using a separate microarray plate. Thus, a single bacterial species was tested with a variety of saccharides on each particular plate. The microarrays are based on redox technology, using cell respiration as a universal reporter. Active cell respiration results in the reduction of a tetrazolium dye and in the formation of a strong color—for example, when using the tetrazolium dye “Biolog Redox Dye Mix D”, the color changes from transparent/colorless to purple when the dye is reduced. The observation of this color change indicates which of the substrates improve the metabolic activity and health of the cells.
(§2) Each bacterial species was collected from blood agar plates (incubated for 48 hours anaerobically at 37° C.) and transferred to an IF-0 Base inoculation fluid (Biolog Inc.), which is a nutritionally poor medium. The resulting cell suspension was adjusted to a transmittance of 42% (relative to the transmittance of the base inoculation fluid with no bacterial species present) at 492 nm using a BioRad SmartSpec 3000 Photometer (the adjustment being effected by adding either further inoculation fluid or further bacteria until the transmittance of 42% was achieved). A 1:5 dilution of this suspension was prepared by mixing 3 mL of the 42% transmittance cell suspension with 15 mL of an inoculation fluid (which inoculation fluid was formed by mixing 11.6 mL sterile water, 62.5 mL IF-0 base inoculation fluid and 0.9 mL of the tetrazolium dye “Biolog Redox Dye mix D”), resulting in a final cell density which was equal to 85% transmittance using a BioRad SmartSpec 3000 Photometer. For each of the saccharides tested, the microarray plate (obtained from the supplier (Biolog Inc.) with saccharides already present in the relevant wells in powder form) was directly inoculated with 100 μL/well of this 85% transmittance cell suspension.
(§3) All plates were incubated in an anaerobic atmosphere at 37° C. Color changes were measured spectrophotometrically at 492 nm (Thermo Scientific Multiskan Ascent) at 24 hrs and 48 hrs using the same plate at both time points. […] After 24 hrs and 48 hrs under continuous shaking in a Multiscan microplate reader, the optical density (OD) of the synthetic medium at 24 hours and 48 hours was measured (using the microplate reader) at a wavelength of 492 nm for each combination of bacterium/saccharide, and for each of their respective controls (i.e. which contained the particular bacterium but no saccharide).
(§4) The experiment was carried out three times for each combination of bacterium with saccharide, with each repeat being carried out on a different day (thus providing three biological replicas). The controls were also carried out three times, as above. The values shown are the average (mean) of the three single values obtained (as detailed above) for each combination of bacterium with saccharide, at 24 hrs and at 48 hrs.
With CC(=O)N[C@H](C=O)[C@@H](O)[C@H](O)[C@H](O)CO [N-acetyl-D-mannosamine, 2-acetamido-2-deoxy-D-mannose] the “metabolic activity: OD 492 nm divided by OD of control (control = 1)” value (“metabolic activity: OD 492 nm divided” for short) was 1.4397.

Same assay, conditions: A naeslundii; 48 hrs
For CC(=O)N[C@H](C=O)[C@@H](O)[C@H](O)[C@H](O)CO [N-acetyl-D-mannosamine, 2-acetamido-2-deoxy-D-mannose], the “metabolic activity: OD 492 nm divided” value was 1.7022.

What follows are molecules tested on Actinomyces viscosus (assay: Phenotype microarray metabolic activity). Conditions: A viscosus; 24 hrs.
Assay type: cell-based
Protocol: as §1, §2, §3, §4
CC(=O)N[C@H](C=O)[C@@H](O)[C@H](O)[C@H](O)CO [N-acetyl-D-mannosamine, 2-acetamido-2-deoxy-D-mannose] was tested, and the “metabolic activity: OD 492 nm divided” value was 0.9778.

Same assay, conditions: A viscosus; 48 hrs
With CC(=O)N[C@H](C=O)[C@@H](O)[C@H](O)[C@H](O)CO [N-acetyl-D-mannosamine, 2-acetamido-2-deoxy-D-mannose] the “metabolic activity: OD 492 nm divided” value was 1.0151.

Each molecule was assayed on Aggregatibacter actinomycetemcomitans (assay: Phenotype microarray metabolic activity). Conditions: A actinomycetemcomitans; 24 hrs.
Assay type: cell-based
Protocol: as §1, §2, §3, §4
CC(=O)N[C@H](C=O)[C@@H](O)[C@H](O)[C@H](O)CO [N-acetyl-D-mannosamine, 2-acetamido-2-deoxy-D-mannose] was tested, and the “metabolic activity: OD 492 nm divided” value was 1.7369.

Same assay, conditions: A actinomycetemcomitans; 48 hrs
In the case of CC(=O)N[C@H](C=O)[C@@H](O)[C@H](O)[C@H](O)CO [N-acetyl-D-mannosamine, 2-acetamido-2-deoxy-D-mannose], the “metabolic activity: OD 492 nm divided” value is reported as 2.1360.

These molecules were tested on Capnocytophaga sputigena (assay: Phenotype microarray metabolic activity). Conditions: C sputigena; 24 hrs.
Assay type: cell-based
Protocol: as §1, §2, §3, §4
With CC(=O)N[C@H](C=O)[C@@H](O)[C@H](O)[C@H](O)CO [N-acetyl-D-mannosamine, 2-acetamido-2-deoxy-D-mannose] the “metabolic activity: OD 492 nm divided” value was 1.1116.

Same assay, conditions: C sputigena; 48 hrs
CC(=O)N[C@H](C=O)[C@@H](O)[C@H](O)[C@H](O)CO [N-acetyl-D-mannosamine, 2-acetamido-2-deoxy-D-mannose] was tested, and the “metabolic activity: OD 492 nm divided” value was 1.0780.

These molecules were tested on Fusobacterium nucleatum (assay: Phenotype microarray metabolic activity). Conditions: F nucleatum; 24 hrs.
Assay type: cell-based
Protocol: as §1, §2, §3, §4
CC(=O)N[C@H](C=O)[C@@H](O)[C@H](O)[C@H](O)CO [N-acetyl-D-mannosamine, 2-acetamido-2-deoxy-D-mannose] was tested, and the “metabolic activity: OD 492 nm divided” value was 1.0897.

Same assay, conditions: F nucleatum; 48 hrs
With CC(=O)N[C@H](C=O)[C@@H](O)[C@H](O)[C@H](O)CO [N-acetyl-D-mannosamine, 2-acetamido-2-deoxy-D-mannose] the “metabolic activity: OD 492 nm divided” value was 1.0886.

Each molecule was assayed on Porphyromonas gingivalis (assay: Phenotype microarray metabolic activity). Conditions: P gingivalis; 24 hrs.
Assay type: cell-based
Protocol: as §1, §2, §3, §4
For CC(=O)N[C@H](C=O)[C@@H](O)[C@H](O)[C@H](O)CO [N-acetyl-D-mannosamine, 2-acetamido-2-deoxy-D-mannose], the “metabolic activity: OD 492 nm divided” value was 0.7968.

Same assay, conditions: P gingivalis; 48 hrs
With CC(=O)N[C@H](C=O)[C@@H](O)[C@H](O)[C@H](O)CO [N-acetyl-D-mannosamine, 2-acetamido-2-deoxy-D-mannose] the “metabolic activity: OD 492 nm divided” value was 0.8296.

These molecules were tested on Prevotella intermedia (assay: Phenotype microarray metabolic activity). Conditions: P intermedia; 24 hrs.
Assay type: cell-based
Protocol: as §1, §2, §3, §4
In the case of CC(=O)N[C@H](C=O)[C@@H](O)[C@H](O)[C@H](O)CO [N-acetyl-D-mannosamine, 2-acetamido-2-deoxy-D-mannose], the “metabolic activity: OD 492 nm divided” value is reported as 0.9878.

Same assay, conditions: P intermedia; 48 hrs
In the case of CC(=O)N[C@H](C=O)[C@@H](O)[C@H](O)[C@H](O)CO [N-acetyl-D-mannosamine, 2-acetamido-2-deoxy-D-mannose], the “metabolic activity: OD 492 nm divided” value is reported as 0.9805.

These molecules were tested on S sanguinis (assay: Phenotype microarray metabolic activity). Conditions: 24 hrs.
Assay type: cell-based
Protocol: as §1, §2, §3, §4
With CC(=O)N[C@H](C=O)[C@@H](O)[C@H](O)[C@H](O)CO [N-acetyl-D-mannosamine, 2-acetamido-2-deoxy-D-mannose] the “metabolic activity: OD 492 nm divided” value was 2.9770.

Same assay, conditions: 48 hrs
For CC(=O)N[C@H](C=O)[C@@H](O)[C@H](O)[C@H](O)CO [N-acetyl-D-mannosamine, 2-acetamido-2-deoxy-D-mannose], the “metabolic activity: OD 492 nm divided” value was 3.0358.

What follows are molecules tested on Streptococcus gordonii (assay: Phenotype microarray metabolic activity). Conditions: S gordonii; 24 hrs.
Assay type: cell-based
Protocol: as §1, §2, §3, §4
In the case of CC(=O)N[C@H](C=O)[C@@H](O)[C@H](O)[C@H](O)CO [N-acetyl-D-mannosamine, 2-acetamido-2-deoxy-D-mannose], the “metabolic activity: OD 492 nm divided” value is reported as 1.6021.

Same assay, conditions: S gordonii; 48 hrs
In the case of CC(=O)N[C@H](C=O)[C@@H](O)[C@H](O)[C@H](O)CO [N-acetyl-D-mannosamine, 2-acetamido-2-deoxy-D-mannose], the “metabolic activity: OD 492 nm divided” value is reported as 2.3739.

These molecules were tested on Streptococcus mitis (assay: Phenotype microarray metabolic activity). Conditions: S mitis; 24 hrs.
Assay type: cell-based
Protocol: as §1, §2, §3, §4
With CC(=O)N[C@H](C=O)[C@@H](O)[C@H](O)[C@H](O)CO [N-acetyl-D-mannosamine, 2-acetamido-2-deoxy-D-mannose] the “metabolic activity: OD 492 nm divided” value was 3.4298.

Same assay, conditions: S mitis; 48 hrs
CC(=O)N[C@H](C=O)[C@@H](O)[C@H](O)[C@H](O)CO [N-acetyl-D-mannosamine, 2-acetamido-2-deoxy-D-mannose] was tested, and the “metabolic activity: OD 492 nm divided” value was 3.0447.

These molecules were tested on Streptococcus mutans (assay: Phenotype microarray metabolic activity). Conditions: S mutans; 24 hrs.
Assay type: cell-based
Protocol: as §1, §2, §3, §4
For CC(=O)N[C@H](C=O)[C@@H](O)[C@H](O)[C@H](O)CO [N-acetyl-D-mannosamine, 2-acetamido-2-deoxy-D-mannose], the “metabolic activity: OD 492 nm divided” value was 1.0429.

Same assay, conditions: S mutans; 48 hrs
In the case of CC(=O)N[C@H](C=O)[C@@H](O)[C@H](O)[C@H](O)CO [N-acetyl-D-mannosamine, 2-acetamido-2-deoxy-D-mannose], the “metabolic activity: OD 492 nm divided” value is reported as 1.0176.

The molecules below were run on Streptococcus salivarius (assay: Phenotype microarray metabolic activity). Conditions: S salivarius; 24 hrs.
Assay type: cell-based
Protocol: as §1, §2, §3, §4
With CC(=O)N[C@H](C=O)[C@@H](O)[C@H](O)[C@H](O)CO [N-acetyl-D-mannosamine, 2-acetamido-2-deoxy-D-mannose] the “metabolic activity: OD 492 nm divided” value was 1.0589.

Same assay, conditions: S salivarius; 48 hrs
With CC(=O)N[C@H](C=O)[C@@H](O)[C@H](O)[C@H](O)CO [N-acetyl-D-mannosamine, 2-acetamido-2-deoxy-D-mannose] the “metabolic activity: OD 492 nm divided” value was 0.9795.

The molecules below were run on Streptococcus sobrinus (assay: Phenotype microarray metabolic activity). Conditions: S sobrinus; 24 hrs.
Assay type: cell-based
Protocol: as §1, §2, §3, §4
For CC(=O)N[C@H](C=O)[C@@H](O)[C@H](O)[C@H](O)CO [N-acetyl-D-mannosamine, 2-acetamido-2-deoxy-D-mannose], the “metabolic activity: OD 492 nm divided” value was 1.1993.

Same assay, conditions: S sobrinus; 48 hrs
In the case of CC(=O)N[C@H](C=O)[C@@H](O)[C@H](O)[C@H](O)CO [N-acetyl-D-mannosamine, 2-acetamido-2-deoxy-D-mannose], the “metabolic activity: OD 492 nm divided” value is reported as 1.1453.

Each molecule was assayed on Tannerella forsythia (assay: Phenotype microarray metabolic activity). Conditions: T forsythia; 24 hrs.
Assay type: cell-based
Protocol: as §1, §2, §3, §4
With CC(=O)N[C@H](C=O)[C@@H](O)[C@H](O)[C@H](O)CO [N-acetyl-D-mannosamine, 2-acetamido-2-deoxy-D-mannose] the “metabolic activity: OD 492 nm divided” value was 0.9666.

Same assay, conditions: T forsythia; 48 hrs
For CC(=O)N[C@H](C=O)[C@@H](O)[C@H](O)[C@H](O)CO [N-acetyl-D-mannosamine, 2-acetamido-2-deoxy-D-mannose], the “metabolic activity: OD 492 nm divided” value was 0.9443.

The molecules below were run on Veillonella parvula (assay: Phenotype microarray metabolic activity). Conditions: V parvula; 24 hrs.
Assay type: cell-based
Protocol: as §1, §2, §3, §4
In the case of CC(=O)N[C@H](C=O)[C@@H](O)[C@H](O)[C@H](O)CO [N-acetyl-D-mannosamine, 2-acetamido-2-deoxy-D-mannose], the “metabolic activity: OD 492 nm divided” value is reported as 0.9189.

Same assay, conditions: V parvula; 48 hrs
With CC(=O)N[C@H](C=O)[C@@H](O)[C@H](O)[C@H](O)CO [N-acetyl-D-mannosamine, 2-acetamido-2-deoxy-D-mannose] the “metabolic activity: OD 492 nm divided” value was 0.9284.

Source: US11419806B2, “Prebiotic oral care methods using a saccharide” (Colgate-Palmolive Company, priority 2013, dated 2022)
